Reference: patent US6228868A, “Oxazoline antiproliferative agents” (Abbott Laboratories, priority 1999, dated 2001)

Legend:
NCI-H460 cells = experiment: 48-hour cellular proliferation assay, sulforhodamine stain (human lung large cell carcinoma, MDR negative); type: cell-based; conditions: for NCI-460 (% Inhibition at 10^-4 M) / inhibition at 100 µM: NCI-460 cells, 10^-4 M; for inhibition at 100 µM / IC50: Homo sapiens; for IC50: NCI-H460 cells, values in nM
Method: (§1) Compounds of this invention were tested in a 48-hour cellular proliferation assay that uses human colon adenocarcinoma, MDR positive (HCT-15) cells, and human lung large cell carcinoma, MDR negative (NCI-H460) cells, in the 96-well microtitre format described in Skehan P., et al. New Colorimetric Cytotoxicity Assay for Anticancer Drug Screening. 1990, J. Natl. Cancer Inst. 82:1107-1112, hereby incorporated by reference. Briefly, the wells of a microtitre plate were charged sequentially with cultured cells and compounds of the invention (1.0×10^-4 to 1.0×10^-11 M in 10% DMSO prepared by dissolving compounds of the invention in DMSO and adding 11 μL of the DMSO solution to 100 μL of culture medium for a final DMSO concentration of 10%). Two of the following controls were also present in each microtitre plate: a solvent (DMSO) control without drug that yielded a 0% inhibition level and a trichloroacetic acid-treated well that yielded a 100% inhibition level. The cells were grown in culture (37° C., 5% CO2 atmosphere) for 48 hours then fixed by the addition of trichloroacetic acid. The wells were stained with sulforhodamine, washed with 1% acetic acid, and treated with 0.01 M tris buffer (100 μL) to solubilize the adherent dye. The absorbance of the dye solution was measured with a Molecular Devices SpectraMax340 plate reader. Percent inhibition and Inhibitory Concentrations (IC50) values were obtained by calculating the proportional response of the experimental values to the absorbance values of the controls.

HCT-15 cells = experiment: 48-hour cellular proliferation assay, sulforhodamine stain (human colon adenocarcinoma, MDR positive); type: cell-based; conditions: for inhibition at 100 µM / IC50: Homo sapiens; for HCT-15 (% Inhibition at 10^-4 M) / inhibition at 100 µM: 10^-4 M
Method: as §1

Molecule | inhibition at 100 µM (NCI-H460 cells) [%] | inhibition at 100 µM (HCT-15 cells) [%] | also measured
2-(3-hydroxy-4-methoxyphenyl)-4-dimethyl-5-(3,4,5-trimethoxyphenyl)-Δ2,3-oxazoline [Example 13] | – | – | NCI-460 (% Inhibition at 10^-4 M) (NCI-H460 cells): 100%; HCT-15 (% Inhibition at 10^-4 M) (HCT-15 cells): 100%
COc1cc(C2CN=C(c3ccc(N(C)C)cc3)O2)cc(OC)c1OC (stereo not shown) [Example 1, 2-(4-dimethylaminophenyl)-5-(3,4,5-trimethoxyphenyl)-Δ2,3-oxazoline] | 100 | 100 | –
COc1ccc(C2=NCC(c3cc(OC)c(OC)c(OC)c3)O2)cc1O (stereo not shown) [Example 2, 2-(3-hydroxy-4-methoxyphenyl)-5-(3,4,5-trimethoxyphenyl)-Δ2,3-oxazoline] | 100 | 100 | –
COc1ccc(C2=NCC(c3cc(OC)c(OC)c(OC)c3)O2)cc1 (stereo not shown) [Example 3, 2-(4-methoxyphenyl)-5-(3,4,5-trimethoxyphenyl)-Δ2,3-oxazoline] | 100 | 100 | –
COc1cc(OC)cc(C2=NCC(c3cc(OC)c(OC)c(OC)c3)O2)c1 (stereo not shown) [Example 4, 2-(3,5-dimethoxyphenyl)-5-(3,4,5-trimethoxyphenyl)-Δ2,3-oxazoline] | 100 | 100 | –
COc1cc(C2CN=C(c3ccc4[nH]cc(C(C)=O)c4c3)O2)cc(OC)c1OC (stereo not shown) [Example 5, 2-(3-acetylindol-5-yl)-5-(3,4,5-trimethoxyphenyl)-Δ2,3-oxazoline] | – | – | NCI-460 (% Inhibition at 10^-4 M) (NCI-H460 cells): 100%; HCT-15 (% Inhibition at 10^-4 M) (HCT-15 cells): 100%
COc1cc(C2CN=C(c3ccc4c(ccn4C)c3)O2)cc(OC)c1OC (stereo not shown) [Example 6, 2-(1-methylindol-5-yl)-5-(3,4,5-trimethoxyphenyl)-Δ2,3-oxazoline] | 100 | 100 | –
COc1cc(C2CN=C(c3c[nH]c4ccccc34)O2)cc(OC)c1OC (stereo not shown) [Example 7, 2-(indol-3-yl)-5-(3,4,5-trimethoxyphenyl)-Δ2,3-oxazoline] | 100 | 100 | –
COc1cc(C2CN=C(c3cc4ccccc4[nH]3)O2)cc(OC)c1OC (stereo not shown) [Example 8, 2-(indol-2-yl)-5-(3,4,5-trimethoxyphenyl)-Δ2,3-oxazoline] | 100 | 100 | –
COCn1ccc2cc(C3=NCC(c4cc(OC)c(OC)c(OC)c4)O3)ccc21 (stereo not shown) [Example 9, 2-(1-methoxymethylindol-5-yl)-5-(3,4,5-trimethoxyphenyl)-Δ2,3-oxazoline] | 100 | 100 | –
COc1cc(C2=NCC(c3cc(OC)c(OC)c(OC)c3)O2)ccc1N (stereo not shown) [Example 10, 2-(4-amino-3-methoxyphenyl)-5-(3,4,5-trimethoxyphenyl)-Δ2,3-oxazoline] | 100 | 100 | –
COc1cc(C2CN=C(c3ccc4[nH]ccc4c3)O2)cc(OC)c1OC (stereo not shown) [Example 11, 2-(indol-5-yl)-5-(3,4,5-trimethoxyphenyl)-Δ2,3-oxazoline] | 100 | 100 | –
COc1cc(C2CN=C(c3ccc(N)c(C)c3)O2)cc(OC)c1OC (stereo not shown) [Example 12, 2-(4-amino-3-methylphenyl)-5-(3,4,5-trimethoxyphenyl)-Δ2,3-oxazoline] | 100 | 100 | –
COc1cc(C2CN=C(c3ccc4c(c3)CCCN4C)O2)cc(OC)c1OC (stereo not shown) [Example 14, 2-(N-methyl-tetrahydroquinol-6-yl)-5-(3,4,5-trimethoxyphenyl)-Δ2,3-oxazoline] | 100 | 100 | –
COc1cc(C2CN=C(C3CC3C)O2)cc(OC)c1OC (stereo not shown) [Example 15, 2-(2-methyl-cyclopropyl)-5-(3,4,5-trimethoxyphenyl)-Δ2,3-oxazoline] | 50 | 50 | –
CCOc1ccc(C2=NCC(c3cc(OC)c(OC)c(OC)c3)O2)cc1 (stereo not shown) [Example 16, 2-(4-ethoxyphenyl)-5-(3,4,5-trimethoxyphenyl)-Δ2,3-oxazoline] | 90.7 | 96.2 | –
COc1ccc(C2=NCC(c3cc(OC)c(OC)c(OC)c3)O2)cc1OC (stereo not shown) [Example 17, 2-(3,4-dimethoxyphenyl)-5-(3,4,5-trimethoxyphenyl)-Δ2,3-oxazoline] | 85.8 | 91 | –
COc1cc(C2=NCC(c3cc(OC)c(OC)c(OC)c3)O2)ccc1OCc1ccccc1 (stereo not shown) [Example 18, 2-(4-benzyloxy-3-methoxyphenyl)-5-(3,4,5-trimethoxyphenyl)-Δ2,3-oxazoline] | 92.2 | 96 | –
COc1cc(C2CN=C(c3cc(Br)cc4c3OCC4)O2)cc(OC)c1OC (stereo not shown) [Example 19, 2-(2,3-dihydro-5-bromo-7-benzofuranyl)-5-(3,4,5-trimethoxyphenyl)-Δ2,3-oxazoline] | 100 | 98.9 | –
COc1ccc(C2=NCC(c3cc(OC)c(OC)c(OC)c3)O2)cc1OC(C)=O (stereo not shown) [Example 20, 2-(3-acetoxy-4-methoxyphenyl)-5-(3,4,5-trimethoxyphenyl)-Δ2,3-oxazoline] | 100 | 91 | –
COc1cc(C2CN=C(c3ccc4c(c3)CCN4C)O2)cc(OC)c1OC (stereo not shown) [Example 21, 2-(1-methyl-2,3-dihydro-indol-5-yl)-5-(3,4,5-trimethoxyphenyl)-Δ2,3-oxazoline] | 92.4 | 100 | –
COc1cc(C2CN=C(c3ccc4cc[nH]c4c3)O2)cc(OC)c1OC (stereo not shown) [Example 27, 2-(6-indolyl)-5-(3,4,5-trimethoxyphenyl)-Δ2,3-oxazoline] | – | – | IC50 (NCI-H460 cells): 170 nM; IC50 (HCT-15 cells; values in nM): 83 nM
COc1cc(C2CN=C(c3ccc4ccn(C)c4c3)O2)cc(OC)c1OC (stereo not shown) [Example 28, 2-(1-methylindol-6-yl)-5-(3 4.5-trimethoxyphenyl)-Δ2,3-oxazoline] | – | – | IC50 (NCI-H460 cells): 390 nM; IC50 (HCT-15 cells; values in nM): 210 nM
COc1cc(C2CN=C(c3cccc4[nH]ccc34)O2)cc(OC)c1OC (stereo not shown) [Example 29, 2-(4-indolyl)-5-(3,4,5-trimethoxyphenyl)-Δ2,3-oxazoline] | – | – | IC50 (NCI-H460 cells): 60 nM; IC50 (HCT-15 cells; values in nM): 39 nM
COc1cc(C2CN=C(c3cccc4c3ccn4C)O2)cc(OC)c1OC (stereo not shown) [Example 30, 2-(1-methylindol-4-yl)-5-(3,4,5-trimethoxyphenyl)-Δ2,3-oxazoline] | – | – | IC50 (NCI-H460 cells): 28 nM; IC50 (HCT-15 cells; values in nM): 24 nM
COc1cc(C2CN=C(c3cccc4cc[nH]c34)O2)cc(OC)c1OC (stereo not shown) [Example 31, 2-(7-indolyl)-5-(3,4,5-trimethoxyphenyl)-Δ2,3-oxazoline] | – | – | IC50 (NCI-H460 cells): 470 nM; IC50 (HCT-15 cells; values in nM): 580 nM
COc1cc(C2CN=C(c3cccc4ccn(C)c34)O2)cc(OC)c1OC (stereo not shown) [Example 32, 2-(1-methylindol-7-yl)-5-(3,4,5-trimethoxyphenyl)-Δ2,3-oxazoline] | – | – | IC50 (HCT-15 cells; values given in μM): 16000 nM
COc1cc(C2CN=C(c3cn(C)c4ccccc34)O2)cc(OC)c1OC (stereo not shown) [Example 33, 2-(1-methylindol-3-yl)-5-(3,4,5-trimethoxyphenyl)-Δ2,3-oxazoline] | – | – | IC50 (NCI-H460 cells): 120 nM; IC50 (HCT-15 cells; values in nM): 32 nM
COc1cc(C2CN=C(c3cc4ccccc4n3C)O2)cc(OC)c1OC (stereo not shown) [Example 34, 2-(1-methyl-indol-2-yl)-5-(3,4,5-trimethoxyphenyl)-Δ2,3-oxazoline] | – | – | IC50 (NCI-H460 cells): 1500 nM; IC50 (HCT-15 cells; values in nM): 650 nM
COc1cc(C2CN=C(c3ccc4[nH]cc(C(=O)C(F)(F)F)c4c3)O2)cc(OC)c1OC (stereo not shown) [Example 76, 2-(3-trifluoroacetyl-5-indolyl)-5-(3,4,5-trimethoxyphenl)-Δ2,3-oxazoline] | – | – | IC50 (HCT-15 cells; values given in μM): 1300 nM
